Results from ChEMBL document CHEMBL1128869, “-Mercaptoacyl dipeptides that inhibit angiotensin converting enzyme and neutral endopeptidase 24.11” (Bioorg Med Chem Lett, 1995).

Assays:
[1] = biological target: Angiotensin-converting enzyme (Homo sapiens, UniProt P12821); assay: Inhibition of angiotensin converting enzyme (ACE); type: protein assay
[2] = biological target: T1, Neprilysin (Rattus norvegicus, UniProt P07861); assay: Inhibition of neutral endopeptidase (NEP) 24.11
T1 sequence (P07861 whole entry): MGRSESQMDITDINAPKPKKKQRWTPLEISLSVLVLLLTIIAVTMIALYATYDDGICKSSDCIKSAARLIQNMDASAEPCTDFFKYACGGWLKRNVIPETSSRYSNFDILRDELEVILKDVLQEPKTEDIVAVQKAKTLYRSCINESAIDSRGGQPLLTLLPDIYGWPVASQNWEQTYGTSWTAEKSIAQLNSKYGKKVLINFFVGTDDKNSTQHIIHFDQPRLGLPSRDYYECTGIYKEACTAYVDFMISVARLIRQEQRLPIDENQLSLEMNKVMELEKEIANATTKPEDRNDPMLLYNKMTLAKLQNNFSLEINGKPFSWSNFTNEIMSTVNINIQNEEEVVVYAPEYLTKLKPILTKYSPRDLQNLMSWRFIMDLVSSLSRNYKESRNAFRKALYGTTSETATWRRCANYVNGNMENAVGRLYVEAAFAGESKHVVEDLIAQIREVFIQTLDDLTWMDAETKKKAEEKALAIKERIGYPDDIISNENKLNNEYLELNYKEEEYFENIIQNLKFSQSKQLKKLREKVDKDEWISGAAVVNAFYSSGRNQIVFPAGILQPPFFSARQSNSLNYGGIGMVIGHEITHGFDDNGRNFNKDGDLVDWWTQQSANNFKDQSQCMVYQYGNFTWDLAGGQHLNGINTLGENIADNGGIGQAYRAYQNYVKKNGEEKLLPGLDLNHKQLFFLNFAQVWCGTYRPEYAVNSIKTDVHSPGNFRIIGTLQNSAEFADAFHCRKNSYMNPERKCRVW

[3] = species on record: Rattus norvegicus; assay: Time taken for 50 % or more inhibition of angiotensin-I (AI) induced pressor response in normotensive rats; type: functional
[4] = species on record: Rattus norvegicus; assay: Compound concentration that causes inhibition of angiotensin-I (AI) induced pressor response in normotensive rats after intra arterial injection; type: functional
[5] = species on record: Rattus norvegicus; assay: Concentration that causes inhibition of angiotensin-I (AI) induced pressor response in normotensive rats after intra arterial injection; type: functional

Row | Compound | IC50 [1] | IC50 [2] | Duration of action [3] | Inhibition [4] | Inhibition [5]
1 | O=C(N[C@@H](Cc1ccc(-c2ccccc2)cc1)C(=O)O)[C@H](S)Cc1ccccc1 | 688 nM | 100 nM | – | – | –
2 | O=C(N[C@@H](Cc1ccc(-c2ccccc2)cc1)C(=O)N1CCC[C@H]1C(=O)O)[C@H](S)c1ccc2c(c1)OCO2 | 378 nM | 222 nM | – | – | –
3 | CC(C)[C@H](S)C(=O)N[C@@H](Cc1ccc(-c2ccccc2)cc1)C(=O)N1CCC[C@H]1C(=O)O | 319 nM | 500 nM | – | – | –
4 | O=C(N[C@@H](Cc1ccc(-c2ccccc2)cc1)C(=O)N1CCC[C@H]1C(=O)O)[C@@H](S)Cc1ccccc1 | 57 nM | 117 nM | 50 min | – | 10 mg/kg
5 | O=C(N[C@@H](Cc1ccc2ccccc2c1)C(=O)N1CCC[C@H]1C(=O)O)[C@H](S)Cc1ccccc1 | 304 nM | 583 nM | – | – | –
6 | O=C(N[C@@H](Cc1ccc(-c2ccccc2)cc1)C(=O)N1CCC[C@H]1C(=O)O)[C@@H](S)c1ccc2c(c1)OCO2 | 183 nM | 385 nM | – | – | –
7 | O=C(N[C@@H](Cc1cccc2ccccc12)C(=O)N1CCC[C@H]1C(=O)O)[C@H](S)Cc1ccccc1 | 27 nM | > 1000 nM | – | – | –
8 | O=C(O)[C@H](Cc1ccc(-c2ccccc2)cc1)NC(=O)[C@@H](S)Cc1ccccc1 | 80 nM | 654 nM | – | – | –
9 | O=C(N[C@@H](Cc1cccc2ccccc12)C(=O)N1CCC[C@H]1C(=O)O)[C@@H](S)Cc1ccccc1 | 14 nM | > 1000 nM | – | – | –
10 | O=C(N[C@@H](Cc1ccc2ccccc2c1)C(=O)N1CCC[C@H]1C(=O)O)[C@@H](S)Cc1ccccc1 | 18 nM | 705 nM | 25 min | – | 10 mg/kg

These reach a lower IC50 [2]. Values come first.

Row | IC50 [1] | IC50 [2] | Compound | Duration of action [3] | Inhibition [4] | Inhibition [5]
11 | 229 nM | 59 nM | O=C(N[C@@H](Cc1ccc(-c2ccccc2)cc1)C(=O)N1CCC[C@H]1C(=O)O)[C@H](S)Cc1ccccc1 | – | – | –
12 | 100 nM | 43 nM | CC(C)[C@H](S)C(=O)N[C@@H](Cc1ccc(-c2ccccc2)cc1)C(=O)N[C@@H](CO)C(=O)O | – | – | –
13 | 175 nM | 33 nM | CC(C)[C@H](S)C(=O)N[C@@H](Cc1ccc(-c2ccccc2)cc1)C(=O)N[C@H](C(=O)O)C(C)C | 70 min | 10 mg/kg | –
14 | 62 nM | 28 nM | CC(C)[C@H](S)C(=O)N[C@@H](Cc1ccc(-c2ccccc2)cc1)C(=O)N[C@@H](Cc1ccc(O)cc1)C(=O)O | 60 min | – | 10 mg/kg
